Assay results reported in patent US6458382B1, “Nucleic acid transfer complexes” (Mirus Corporation, priority 1999, dated 2002).

Tests used:
[1] = tested on: Sf9 cells; assay: Transfection of Sf9 cells, β-galactosidase reporter (Examples 3, 4); format: cell-based, Spodoptera frugiperda; conditions: for Efficiency of detergent added to DOTAP/neutral lipid reagent, in words: transfecting Sf9 cells
Protocol: Sf21 (Spodoptera frugiperda pupal ovarian cells) cells were maintained in TC-100 medium, and High Five or BTI-TN-5BI-4 (Trichoplusia ni embryonic ovarian cells) cells were maintained in Ex-Cell medium at 27° C. in an atmosphere of 5% CO2 in air. S2 (Drosophila melanogaster embryonic cells) were maintained in Shields and Sang M3 medium supplemented with 5% FCS at 25° C. The cells were seeded in a 6-well plate (35 mm culture dishes) 24 h before the transfection at 70% confluence. Before transfection, the cells were washed once or twice with serum-free medium, and placed in 2 ml serum-free medium per 35-mm dish. The liposomes were diluted in 0.15 ml of serum-free medium. Following a 5 minute incubation at room temperature, two μg of plasmid DNA (containing the luciferase or β-galactosidase reporter genes described below) was added, followed by a 5 minute incubation at room temperature prior to being added to the cells in the culture dish. The cells were incubated under the appropriate conditions. After four hours, the transfection mixture was removed and replaced with 2 ml of regular culture medium. […]
The firefly luciferase and E. coli β-galactosidase reporter genes were used to determine the efficiency of DNA transfer quantitatively. […]
For determination of luciferase activity, cells were lysed by the addition of 200 μl of lysis buffer (0.1% Triton X-100, 0.1M K-phosphate, 1 mM DTT, pH 7.8). Ten μl of the cellular extract were analyzed for luciferase activity, using the Enhanced Luciferase Assay kit (Mirus). For determination of β-galactosidase activity, the cells were lysed by the addition of 200 μl of lysis buffer (0.1% Triton X-100, 0.1M K-phosphate, 1 mM DTT, pH 7.8). β-Galactosidase activity was determined using a chemiluminescent assay (Tropix).
Two μg of the β-galactosidase expression vector pIE1HR5/LacZ were transfected into Sf9 cells using TRANSIT-INSECTA, Reagent C (CELLFECTIN from Life Technologies) and Reagent I (INSECTIN-PLUS from Invitrogen). […] Reporter gene expression was determined after 2 days using a chemiluminescent assay (Tropix). […]

[2] = background statement on prior art; cited from earlier work
[3] = tested on: insect cells; assay: Transfection of insect cells with DOTAP-based reagent; conditions: insect cell lines grown in vitro (e.g., Sf9, Sf21, High Five, S2)
Excerpt: Addition of detergents increases the efficiency of a transfection reagent. However, the optimal type and amount of detergent vary for different transfection reagents and target cell types. […] In a typical transfection reagent, the DOTAP is mixed with a neutral lipid (e.g., DOPE, cholesterol) to form a liposome. […] Optimal enhancement with DLPE was obtained over a range of 1-10% (weight percentage of total composition of DOTAP, DOPE, and neutral lipid).

Compound: CCCCCCCCCCCC(=O)OC[C@H](COP(=O)(O)OCCN)OC(=O)CCCCCCCCCCC [DLPE, dilauroyl phosphatidylethanolamine]
- Efficiency of detergent added to DOTAP/neutral lipid reagent, in words [1]: more efficient than addition of CHAPS
- Range of DLPE giving optimal enhancement of transfection efficiency ([1]; weight percentage of total composition of DOTAP, DOPE, and neutral lipid): 1-10%

Compound: CCCCCCCCCCCCCCCCCCN [Stearylamine]
- cytotoxicity, in words [2]: great cytotoxicity

Compound: CCCCCCCCCCCC(=O)OC[C@H](COP(=O)([O-])OCC[N+](C)(C)C)OC(=O)CCCCCCCCCCC [DLPC, dilauroylphosphatidylcholine]
- Efficiency of detergent added to DOTAP/neutral lipid reagent, in words [1]: more efficient than addition of CHAPS

Compound: CCCCCCCC/C=C\CCCCCCCC(=O)OCC(C[N+](C)(C)C)OC(=O)CCCCCCC/C=C\CCCCCCCC (centres unmarked) [DOTAP, 1,2-bis(oleoyloxy)-3-(4′-trimethylammonio)propane]
- Transfection efficiency for insect cells, in words [3]: efficient transfection reagent
